Test system: Plasmodium berghei
Experiment: Luciferase/luciferin-expressing antifolate-resistant parasites were used to infect a culture of HepG2 cells that were pre-incubated with compounds. Infected hepatocytes emit light due to the luciferase reaction. Assay results are presented as the percent inhibition of light emission compared to control. […]
Type: functional
Conditions: sporozoite; for IC90: read-out: LUCIFERASE INFECTION ASSAY - IC90
[1] = read-out: LUCIFERASE INFECTION ASSAY - IC50

SMILES | IC90 [µM] | IC50 [1] [µM] | further results
CC(C)N1CCN(c2ccc(-c3cn4c(-c5ccccc5)cnc4cn3)cc2)CC1 | > 8.3 | – | IC50 (PBLUC_HILL_SLOPE 2.04, PBLUC_R_SQUARED 0.328, read-out: LUCIFERASE INFECTION ASSAY - IC50): 5.96 µM
Cc1c(NC(=O)c2cccc(Nc3nc(-c4cccs4)nc4ccccc34)c2)c(=O)n(-c2ccccc2)n1C | > 10 | 9.1 | –
Cc1c(C)n(CC(C)C)c2ncnc(Nc3nccs3)c12 | > 10.9 | > 10.9 | –
CC(C)(C)CC(=O)Nc1ccc2nc(-c3cccs3)nn2c1 | > 10 | – | IC50 (PBLUC_HILL_SLOPE 0.64, PBLUC_R_SQUARED 0.361, read-out: LUCIFERASE INFECTION ASSAY - IC50): 2.36 µM
COc1cc(Nc2cc3c(cn2)nc(NCc2ccccc2)n3C)cc(C(F)(F)F)c1 | > 10 | > 10 | –
O=S(=O)(Nc1ccc(Oc2cc(C(F)(F)F)cc(C(F)(F)F)c2)cc1)c1cc(C(F)(F)F)cc(C(F)(F)F)c1 | 3.81 | – | IC50 (FFLUC_HILL_SLOPE 18.8, FFLUC_R_SQUARED 0.264, HEPG2TOX_HILL_SLOPE 15.6, HEPG2TOX_R_SQUARED 0.875, PBLUC_HILL_SLOPE 191, PBLUC_R_SQUARED 0.155, read-out: LUCIFERASE INFECTION ASSAY - IC50): 3.76 µM
COc1cccc(/C=C/C(=O)NC2CCCc3ccccc32)c1OC(F)F (centres undefined) | > 10 | – | IC50 (PBLUC_HILL_SLOPE 2.15, PBLUC_R_SQUARED 0.14, read-out: LUCIFERASE INFECTION ASSAY - IC50): > 10 µM
O=C1C(=O)N(CCN2CCOCC2)c2ccc(Cl)cc21 | 9.44 | – | IC50 (PBLUC_HILL_SLOPE 1.82, PBLUC_R_SQUARED 0.307, read-out: LUCIFERASE INFECTION ASSAY - IC50): 2.83 µM
CN(C)c1ccc(C(=O)N2CCc3nc(NCc4cccc(Oc5ccccc5)c4)ncc3C2)cc1 | > 6.88 | – | IC50 (HEPG2TOX_HILL_SLOPE 9.14, HEPG2TOX_R_SQUARED 0.261, read-out: LUCIFERASE INFECTION ASSAY - IC50): > 6.88 µM
Cc1nc(N/N=C/c2ccc(O)cc2)c2cnn(-c3ccccc3)c2n1 | > 10 | > 10 | –
CC(=O)c1ccc(NC(=O)Cn2nc(-c3ccco3)ccc2=O)cc1 | > 9.78 | – | IC50 (FFLUC_HILL_SLOPE 14.3, FFLUC_R_SQUARED 0.29, read-out: LUCIFERASE INFECTION ASSAY - IC50): > 9.78 µM
CCCCCCCCCCOCC[N+]1(C)CCOCC1 | 7.47 | – | IC50 (HEPG2TOX_HILL_SLOPE 3.29, HEPG2TOX_R_SQUARED 0.591, PBLUC_HILL_SLOPE 1.92, PBLUC_R_SQUARED 0.78, read-out: LUCIFERASE INFECTION ASSAY - IC50): 2.38 µM
COc1ccc(-c2csc3ncnc(NCC(=O)NC(C)C)c23)cc1 | > 10 | – | IC50 (HEPG2TOX_HILL_SLOPE 2.82, HEPG2TOX_R_SQUARED 0.984, PBLUC_HILL_SLOPE 1.1, PBLUC_R_SQUARED 0.732, read-out: LUCIFERASE INFECTION ASSAY - IC50): 2.59 µM
FC(F)(F)c1cccc(-c2cnc3ccc(-c4cccs4)nn23)c1 | > 10 | > 10 | –
C/C(=N\Nc1cccc([N+](=O)[O-])c1)c1cc2ccccc2o1 | 4.09 | – | IC50 (PBLUC_HILL_SLOPE 10.9, PBLUC_R_SQUARED 0.683, read-out: LUCIFERASE INFECTION ASSAY - IC50): 3.34 µM
CC(C)c1ccccc1NC(=O)Nc1nc(C(N)C2CCCCC2)cs1 (centres undefined) | 8 | – | IC50 (HEPG2TOX_HILL_SLOPE 0.21, HEPG2TOX_R_SQUARED 0.263, PBLUC_HILL_SLOPE 31.8, PBLUC_R_SQUARED 0.686, read-out: LUCIFERASE INFECTION ASSAY - IC50): 7.47 µM
O=C(Nc1cccc(C(F)(F)F)c1)Nc1ccc2nc(-c3ccncc3)nn2c1 | > 10 | > 10 | –
N#Cc1ccc(CN2CCN(Cc3nnc(C(=O)Nc4ccc(Cl)cc4)s3)CC2)cc1 | > 10 | > 10 | –
COc1cc(OC)cc(C(=O)NNC(=O)CCC(=O)c2ccc(Cl)s2)c1 | > 10 | > 10 | –
CCCCCCN(C(=O)CC(NC(=O)c1ccccc1)c1ccccc1)c1nc2ccccc2s1 (centres undefined) | 9.24 | – | IC50 (FFLUC_HILL_SLOPE 11.5, FFLUC_R_SQUARED 0.371, PBLUC_HILL_SLOPE 30.2, PBLUC_R_SQUARED 0.437, read-out: LUCIFERASE INFECTION ASSAY - IC50): 8.6 µM
CNc1nc2cnc(Nc3cccc(C(C)=O)c3)cc2n1-c1cccc(F)c1 | > 10 | > 10 | –
Oc1cccnc1NC(c1ccc(Br)cc1)c1ccc2cccnc2c1O (centres undefined) | 7.73 | – | IC50 (FFLUC_HILL_SLOPE 24.2, FFLUC_R_SQUARED 0.301, HEPG2TOX_HILL_SLOPE 1.67, HEPG2TOX_R_SQUARED 0.953, PBLUC_HILL_SLOPE 5.65, PBLUC_R_SQUARED 0.637, read-out: LUCIFERASE INFECTION ASSAY - IC50): 5.24 µM
CC(C)c1noc(CCC(=O)Nc2ccc(F)cc2F)n1 | > 10 | > 10 | –
Cc1cccc(C)c1NC(=O)Nc1cccn(Cc2ccc(Cl)cc2)c1=O | > 8.64 | – | IC50 (PBLUC_HILL_SLOPE 2.91, PBLUC_R_SQUARED 0.157, read-out: LUCIFERASE INFECTION ASSAY - IC50): 7.92 µM

SMILES | IC90 [µM] | IC50 [1] [µM] | further results
CN(c1ccccc1)S(=O)(=O)c1ccc(C(=O)N2CCN(Cc3ccc(Cl)s3)CC2)cc1 | > 10 | – | IC50 (PBLUC_HILL_SLOPE 1.66, PBLUC_R_SQUARED 0.494, read-out: LUCIFERASE INFECTION ASSAY - IC50): 8.02 µM
Cc1nn(S(=O)(=O)c2ccc(-c3ccccn3)s2)c(C)c1Br | > 8.29 | > 8.29 | –
N#Cc1ccc(S(=O)(=O)Nc2cc(C(F)(F)F)cc(C(F)(F)F)c2)c(Cl)c1 | 5.49 | – | IC50 (FFLUC_HILL_SLOPE 10.5, FFLUC_R_SQUARED 0.0508, HEPG2TOX_HILL_SLOPE 1.91, HEPG2TOX_R_SQUARED 0.922, PBLUC_HILL_SLOPE 2.28, PBLUC_R_SQUARED 0.661, read-out: LUCIFERASE INFECTION ASSAY - IC50): 2.09 µM
O=C(OCc1cc(=O)oc2cc(O)ccc12)c1ccc(Cl)c(S(=O)(=O)N2CCCCCC2)c1 | > 10 | – | IC50 (PBLUC_HILL_SLOPE 24.9, PBLUC_R_SQUARED 0.0553, read-out: LUCIFERASE INFECTION ASSAY - IC50): 9.36 µM
COc1ccc(C(N)c2csc(NC(=O)Nc3ccccc3C(C)C)n2)cc1 (centres undefined) | 3.02 | – | IC50 (PBLUC_HILL_SLOPE 13.4, PBLUC_R_SQUARED 0.332, read-out: LUCIFERASE INFECTION ASSAY - IC50): 2.57 µM
CC(C)c1ccc(OCC(=O)Nc2ccccc2C(F)(F)F)cc1 | > 9.78 | > 9.78 | –
COc1ccc(S(=O)(=O)NN(C)c2nc3ccccc3nc2C(F)(F)F)cc1 | > 8 | 5.18 | –
O=C(Nc1ncccc1O)c1ccc(-c2ccccc2)cc1 | 8 | 4.59 | –
COc1cccc(C(=O)Nc2nc3ccc(C)cn3c2C(=O)NCC(C)C)c1 | 4.69 | 2.62 | –
COC(=O)c1cccc(NC(=S)NC(=O)c2ccc(C(C)(C)C)cc2)c1 | > 8.91 | > 8.91 | –
Cc1sc2ncnc(N3CCC(C(=O)Nc4nnc(-c5cccc([N+](=O)[O-])c5)o4)CC3)c2c1C | > 10 | > 10 | –
Cc1noc(-c2ccc(C(F)(F)F)cc2)c1NC(=O)Nc1cc(Cl)cc(Cl)c1 | 1.05 | 0.395 | –
O=C(Nc1cccc(Cl)c1)Nc1ccc2nc(Cc3ccccc3)nn2c1 | 3.2 | 2.79 | –
COc1ccc(CCNc2nc(C)nc3sc(-c4ccccc4)cc23)cc1OC | > 10 | – | IC50 (HEPG2TOX_HILL_SLOPE 6.76, HEPG2TOX_R_SQUARED 0.162, read-out: LUCIFERASE INFECTION ASSAY - IC50): > 10 µM
COc1ccc(-c2cnc3ccc(N[C@H](CO)C(C)C)nn23)cn1 | 4.4 | – | IC50 (PBLUC_HILL_SLOPE 4.47, PBLUC_R_SQUARED 0.471, read-out: LUCIFERASE INFECTION ASSAY - IC50): 2.69 µM
Cc1ccccc1OC1=C(Cl)C(=O)c2ccccc2C1=O | 9.86 | – | IC50 (FFLUC_HILL_SLOPE 16.7, FFLUC_R_SQUARED 0.318, HEPG2TOX_HILL_SLOPE 9.14, HEPG2TOX_R_SQUARED 0.751, PBLUC_HILL_SLOPE 4.24, PBLUC_R_SQUARED 0.127, read-out: LUCIFERASE INFECTION ASSAY - IC50): 5.87 µM
Cc1nn(-c2ccccc2)c(Cl)c1/C=N/OCC(=O)Nc1cccc(C(F)(F)F)c1 | 9.91 | – | IC50 (PBLUC_HILL_SLOPE 4.91, 2.77, PBLUC_R_SQUARED 0.190, 0.335, read-out: LUCIFERASE INFECTION ASSAY - IC50): 5.6 µM
CCOC(=O)c1ccc(S(=O)(=O)N2CCC(N(C)C)CC2)cc1 | > 10 | > 10 | –
O=C(c1ccc(Cl)cc1)N1CCCC(C(=O)N2CCN(Cc3ccc4c(c3)CCO4)CC2)C1 (centres undefined) | > 10 | > 10 | –
Cc1noc(C)c1COc1cccc(C(=O)OCC(=O)N2CC(=O)Nc3ccccc32)c1 | > 10 | – | IC50 (HEPG2TOX_HILL_SLOPE 1.25, HEPG2TOX_R_SQUARED 0.939, PBLUC_HILL_SLOPE 2.73, PBLUC_R_SQUARED 0.35, read-out: LUCIFERASE INFECTION ASSAY - IC50): 6.68 µM
O=C1COc2ccc(-c3cs/c(=N\c4cc(S(=O)(=O)N5CCOCC5)ccc4Cl)n3C3CC3)cc2N1 | > 10 | – | IC50 (FFLUC_HILL_SLOPE 592, FFLUC_R_SQUARED 0.24, HEPG2TOX_HILL_SLOPE 8.86, HEPG2TOX_R_SQUARED 0.733, PBLUC_HILL_SLOPE 5.17, PBLUC_R_SQUARED 0.255, read-out: LUCIFERASE INFECTION ASSAY - IC50): 8.04 µM
O=C(Nc1ccccc1)Nc1cncc(C#Cc2ccccc2)c1 | 10.2 | – | IC50 (PBLUC_HILL_SLOPE 6.32, PBLUC_R_SQUARED 0.624, read-out: LUCIFERASE INFECTION ASSAY - IC50): 7.23 µM
CC1(c2cc(F)ccc2F)NC(=O)N(CC(=O)c2cn(CCC#N)c3ccccc23)C1=O (centres undefined) | > 10 | > 10 | –

From ChEMBL document CHEMBL4483862, “Open-source discovery of chemical leads for next-generation chemoprotective antimalarials” (2018)
